Measurements taken from patent US20250326744A1, “PIPERAZINE DERIVATIVE OR SALT THEREOF, AND PHARMACEUTICAL COMPOSITION” (priority 2022, published 2025).
Structures can show the parent of a compound that is named as a salt.

Key:
mexB (PA) strain = experiment: Combinational effect with antibacterial agent against Pseudomonas aeruginosa (Test Examples 2 and 4): mexB (PA) strain with LVFX, TC or AZT at 1/4 MIC, EC99; type: cell-based; conditions: Table 52, Test Example 2, 16 to 20 hours culture, OD595; for EC99, mexB (PA), AZT: combined with AZT at 1/4 MIC; for EC99, mexB (PA), LVFX: combined with LVFX at 1/4 MIC; for EC99, mexB (PA), TC: combined with TC at 1/4 MIC
Description: (§1) The combinational effect of the test compound with the antibacterial agent against Pseudomonas aeruginosa was evaluated.
For the evaluation of the inhibitory ability against MexAB-OprM, a mutant strain of Pseudomonas aeruginosa in which MexAB-OprM was expressed as a main drug efflux pump (hereinafter, referred to as a “mexB (PA) strain”) was used. LVFX, TC, or AZT was used as the antibacterial agent used in combination.
The mexB (PA) strain is a strain produced by deleting the genes of MexCD-OprJ, MexEF-OprN, and MexXY in the drug efflux pump of Pseudomonas aeruginosa described in FEMS Microbiology Letters, 2001, Vol. 202, pp. 139 to 143. In the mexB (PA) strain, an expression level of MexB as a drug efflux pump is accelerated.
TC is a tetracycline-based antibacterial agent and is a drug that is discharged outside the bacteria by MexB. AZT is a monobactam-based antibacterial agent and is a drug that is discharged outside the bacteria by MexB.
(§2) AMK and GM are aminoglycoside-based antibacterial agents, and are drugs that are not discharged outside the bacteria by MexB but are discharged outside the bacteria by MexY For the culture of each Pseudomonas aeruginosa strain, a 96-well plate (amount of culture medium per well: 100 μL) was used, and cation-adjusted Mueller Hinton broth (CAMHB) was used. The inoculation amount of the bacteria was set to 10^4 to 5 CFU/well.
(§3) The mexB (PA) strain and the S-3769 strain were cultured for 16 to 20 hours in a culture medium to which each antibacterial agent and test compounds at various concentrations (0 to 800 μM) were added, and the proliferation of the bacterial strains was evaluated by optical turbidity at 595 nm (OD595). The concentration of the antibacterial agent in the culture medium was set to ¼ MIC.
(§4) The proliferation of bacteria in a case where the test compound and the antibacterial agent were not added was measured, and compared with the proliferation of bacteria in a case where the test compound in a case where the antibacterial agent was added at the concentration of ¼ MIC was contained, and the lowest concentration of the test compound at which the proliferation was inhibited by 99% or more was defined as the drug efflux pump inhibitory ability of the test compound as 99% inhibitory effect concentration (EC99).
(§5) The effect of suppressing the proliferation of each test compound in combination with an antibacterial agent at ¼ MIC for mexB (PA) or the S-3769 strain was evaluated as follows according to the value of EC99. • S: EC99≤12.5 μM • A: 12.5 μM<EC99≤25 μM • B: 25 μM<EC99≤100 μM • C: 100 μM<EC99
(§6) The combinational effect of the test compound with the antibacterial agent against Pseudomonas aeruginosa was evaluated in the same manner as in Test Example 2.

S-3769 strain = experiment: Combinational effect with antibacterial agent against Pseudomonas aeruginosa (Test Examples 2 and 4): S-3769 strain with AMK or GM at 1/4 MIC, EC99; type: cell-based; conditions: Table 52, Test Example 2, 16 to 20 hours culture, OD595; for EC99, S-3769 strain, AMK: combined with AMK at 1/4 MIC; for EC99, S-3769 strain, GM: combined with GM at 1/4 MIC
Description: as §1
The […] was used for evaluating the inhibitory ability against MexXY-OprM. AMK or GM was used as the antibacterial agent used in combination.
The S-3769 strain is a clinically isolated strain collected from a domestic medical institution, and is a strain in which the expression level of MexY is accelerated.
as §2, §3, §4, §5, §6

N[C@@H](C(=O)N1CCN(Cc2cccc3c2OCC3)CC1)C1CCN(CCc2cc(Cl)ccc2-c2ccccc2)CC1 [Example 38, Hydrobromide of (R)-2-amino-2-(1-(2-(4-chloro-[1,1′-biphenyl]-2-yl)ethyl)piperidin-4-yl)-1-(4-((2,3-dihydrobenzofuran-7-yl)methyl)piperazin-1-yl)ethan-1-one]
EC99, mexB (PA), AZT (mexB (PA) strain): A (12.5 μM<EC99≤25 μM)
EC99, mexB (PA), LVFX (mexB (PA) strain): C (100 μM<EC99)
EC99, mexB (PA), TC (mexB (PA) strain): B (25 μM<EC99≤100 μM)
EC99, S-3769 strain, AMK (S-3769 strain): A (12.5 μM<EC99≤25 μM)
EC99, S-3769 strain, GM (S-3769 strain): A (12.5 μM<EC99≤25 μM)

N[C@@H](C(=O)N1CCN(Cc2cccc3ccoc23)CC1)C1CCN(CCc2cc(Cl)ccc2-c2ccccc2)CC1 [Example 39, Hydrobromide of (R)-2-amino-1-(4-(benzofuran-7-ylmethyl)piperazin-1-yl)-2-(1-(2-(4-chloro-[1,1′-biphenyl]-2-yl)ethyl)piperidin-4-yl)ethan-1-one]
EC99, mexB (PA), AZT (mexB (PA) strain): A (12.5 μM<EC99≤25 μM)
EC99, mexB (PA), LVFX (mexB (PA) strain): B (25 μM<EC99≤100 μM)
EC99, mexB (PA), TC (mexB (PA) strain): A (12.5 μM<EC99≤25 μM)
EC99, S-3769 strain, AMK (S-3769 strain): A (12.5 μM<EC99≤25 μM)
EC99, S-3769 strain, GM (S-3769 strain): B (25 μM<EC99≤100 μM)

CCOc1cccc(F)c1CN1CCN(C(=O)[C@H](N)C2CCN(CCc3cccc4ccccc34)CC2)CC1 [Example 42]
EC99, mexB (PA), AZT (mexB (PA) strain): B (25 μM<EC99≤100 μM)
EC99, mexB (PA), LVFX (mexB (PA) strain): B (25 μM<EC99≤100 μM)
EC99, mexB (PA), TC (mexB (PA) strain): B (25 μM<EC99≤100 μM)
EC99, S-3769 strain, AMK (S-3769 strain): S (EC99≤12.5 μM)
EC99, S-3769 strain, GM (S-3769 strain): S (EC99≤12.5 μM)

CCOc1cccc(F)c1CN1CCN(C(=O)[C@H](N)C2CCN(CCc3cc(Cl)ccc3-c3ccccc3Cl)CC2)CC1 [Example 44, (R)-2-amino-2-(1-(2-(2′,4-dichloro-[1,1′-biphenyl]-2-yl)ethyl)piperidin-4-yl)-1-(4-(2-ethoxy-6-fluorobenzyl)piperazin-1-yl)ethan-1-one]
EC99, mexB (PA), AZT (mexB (PA) strain): S (EC99≤12.5 μM)
EC99, mexB (PA), LVFX (mexB (PA) strain): A (12.5 μM<EC99≤25 μM)
EC99, mexB (PA), TC (mexB (PA) strain): S (EC99≤12.5 μM)
EC99, S-3769 strain, AMK (S-3769 strain): S (EC99≤12.5 μM)
EC99, S-3769 strain, GM (S-3769 strain): S (EC99≤12.5 μM)

CCOc1cccc(F)c1CN1CCN(C(=O)[C@H](N)C2CCN(CCc3ccccc3-c3cc(F)cc(F)c3)CC2)CC1 [Example 48, Hydrobromide of (R)-2-amino-2-(1-(2-(3′,5′-difluoro-[1,1′-biphenyl]-2-yl)ethyl)piperidin-4-yl)-1-(4-(2-ethoxy-6-fluorobenzyl)piperazin-1-yl)ethan-1-one]
EC99, mexB (PA), AZT (mexB (PA) strain): B (25 μM<EC99≤100 μM)
EC99, mexB (PA), LVFX (mexB (PA) strain): C (100 μM<EC99)
EC99, mexB (PA), TC (mexB (PA) strain): B (25 μM<EC99≤100 μM)
EC99, S-3769 strain, AMK (S-3769 strain): B (25 μM<EC99≤100 μM)
EC99, S-3769 strain, GM (S-3769 strain): A (12.5 μM<EC99≤25 μM)

CCOc1cccc(F)c1CN1CCN(C(=O)[C@H](N)C2CCN(CCc3cc(F)ccc3-c3ccccc3)CC2)CC1 [Example 50, Hydrobromide of (R)-2-amino-1-(4-(2-ethoxy-6-fluorobenzyl)piperazin-1-yl)-2-(1-(2-(4-fluoro-[1,1′-biphenyl]-2-yl)ethyl)piperidin-4-yl)ethan-1-one]
EC99, mexB (PA), AZT (mexB (PA) strain): B (25 μM<EC99≤100 μM)
EC99, mexB (PA), LVFX (mexB (PA) strain): C (100 μM<EC99)
EC99, mexB (PA), TC (mexB (PA) strain): B (25 μM<EC99≤100 μM)
EC99, S-3769 strain, AMK (S-3769 strain): B (25 μM<EC99≤100 μM)
EC99, S-3769 strain, GM (S-3769 strain): A (12.5 μM<EC99≤25 μM)

CCOc1cccc(F)c1CN1CCN(C(=O)[C@H](N)C2CCN(CCc3cc(OC)ccc3-c3ccccc3)CC2)CC1 [Example 51, Hydrobromide of (R)-2-amino-1-(4-(2-ethoxy-6-fluorobenzyl)piperazin-1-yl)-2-(1-(2-(4-methoxy-[1,1′-biphenyl]-2-yl)ethyl)piperidin-4-yl)ethan-1-one]
EC99, mexB (PA), AZT (mexB (PA) strain): B (25 μM<EC99≤100 μM)
EC99, mexB (PA), LVFX (mexB (PA) strain): B (25 μM<EC99≤100 μM)
EC99, mexB (PA), TC (mexB (PA) strain): B (25 μM<EC99≤100 μM)
EC99, S-3769 strain, AMK (S-3769 strain): A (12.5 μM<EC99≤25 μM)
EC99, S-3769 strain, GM (S-3769 strain): S (EC99≤12.5 μM)
